Test results: US9821062B2, “Cyanine dye compound and preparation method therefor, and dual-function agent for photodynamic therapy and preparation method therefor” (ZHEJIANG HISUN PHARMACEUTICAL CO., LTD., priority 2012, dated 2017)

Assay: Ultraviolet spectroscopy detection: long-wavelength absorption peak, fluorescence, Stokes shift
Format: physicochemical
Excerpt: Electronic absorption spectra for the compounds are shown in FIG. 1, from which it can be seen that, all the compounds having a structure shown in formula VIII, formula IX, formula III, formula IV, formula V, and formula XVII provided according to the present invention show a strong long-wavelength absorption peak between 750 nm and 860 nm, and have an obvious Stokes shift between 37 nm and 41 nm.

CC1(C)C(/C=C/C2=C(Sc3ccc(C(=O)O)cc3)C(=C/C=C3/N(CCCCS(=O)(=O)O)c4ccc5ccccc5c4C3(C)C)/CCC2)=[N+](CCCCS(=O)(=O)O)c2ccc3ccccc3c21 [Formula IX]
Fluorescence: 876 nm | Stokes shift: 39 nm | Absorption peak (long-wavelength absorption peak): 837 nm
